The target in one data set is phosphorylated MEK1 (Homo sapiens, UniProt Q02750). In words: MEK1 binding assay (HTRF, tracer displacement). The note with it: for inhibition at 2 µM: read-out: % binding (2 µM); for inhibition at 20 µM: read-out: % binding (20 µM). On the procedure: The homogeneous time resolved fluorescence (HTRF) assay was performed on a Proxiplate-384 F plus solid back plate (Perkin Elmer, Waltham, MA. USA) with 5 nM GST tagged phosphorylated MEK1 (GST-MEK1), 2 nM europium-labeled anti-GST antibody (Eu-anti-GST), 20 nM kinase tracer 236 and test compound at a variety of concentrations. In the reaction mixture, GST-MEK1 forms a complex with the Eu-anti-GST and the tracer. Excitation of europium (the donor) using a 340-nm excitation filter results in energy transfer to the fluorophore of the tracer. This energy transfer is detected by an increase in the fluorescence emission of the tracer at 665 nm and a decrease in the fluorescence emission of europium at 615 nm. The FRET ratio was calculated by dividing the emission signal at 665 nm by the emission signal at 615 nm. A competitor compound such as a MEK inhibitor replaces the tracer from the complex and decreases the FRET ratio accordingly. The plate was incubated in dark at room temperature for 30 min before measuring the fluorescent emission of each well at 665 and 615 nm using a 340-nm excitation filter, 100-µs delay time, and 200-µs integration time, on a PHERAStar plate reader (BMG Labtech, Durham, NC, USA). […] Data shown as %Inhibition normalized to AZD6244 at 100 µM.
Sequence of phosphorylated MEK1 (Q02750 whole entry): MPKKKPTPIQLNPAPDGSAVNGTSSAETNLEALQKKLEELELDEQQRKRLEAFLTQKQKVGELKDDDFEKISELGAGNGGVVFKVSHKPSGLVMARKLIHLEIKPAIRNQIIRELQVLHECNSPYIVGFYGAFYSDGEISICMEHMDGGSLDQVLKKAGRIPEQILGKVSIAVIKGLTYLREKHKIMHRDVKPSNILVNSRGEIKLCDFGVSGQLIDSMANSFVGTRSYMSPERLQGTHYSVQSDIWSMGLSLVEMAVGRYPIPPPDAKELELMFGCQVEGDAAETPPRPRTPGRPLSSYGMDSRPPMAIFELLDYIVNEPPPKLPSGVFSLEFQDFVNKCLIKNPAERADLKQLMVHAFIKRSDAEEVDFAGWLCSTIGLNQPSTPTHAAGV

Experimental findings from article PMC6269873, “Substituted 3-Benzylcoumarins as Allosteric MEK1 Inhibitors: Design, Synthesis and Biological Evaluation as Antiviral Agents” (Molecules, 2013) are described below.

For `Cn1cnc2c(F)c(Nc3ccc(Br)cc3Cl)c(C(=O)NOCCO)cc21` [AZD6244, reference compound], the inhibition at 100 µM on phosphorylated MEK1 stood at 100%.
`Cc1c(Cc2ccccc2)c(=O)oc2cc(O)ccc12` [Compound 4b, 3-Benzyl-7-hydroxy-4-methyl-2H-chromen-2-one]: at phosphorylated MEK1, the inhibition at 2 µM is -0.81% and the inhibition at 20 µM was -6.03%.
Regarding `Cc1c(Cc2ccccc2)c(=O)oc2cc(O)c(Cl)cc12` [Compound 4c, 3-Benzyl-6-chloro-7-hydroxy-4-methyl-2H-chromen-2-one], on phosphorylated MEK1, the inhibition at 2 µM came to 15.8% and the inhibition at 20 µM was 5.1%.
With `CCc1c(Cc2ccccc2)c(=O)oc2cc(O)ccc12` [Compound 4d, 3-Benzyl-4-ethyl-7-hydroxy-2H-chromen-2-one], the melting point lay in the range of 140 to 141 °C. In addition, at phosphorylated MEK1, the inhibition at 2 µM was determined as 27% and the inhibition at 20 µM turned out to be 10.4%.
For `CCCc1c(Cc2ccccc2)c(=O)oc2cc(O)ccc12` [Compound 4e, 3-Benzyl-7-hydroxy-4-propyl-2H-chromen-2-one] the same measures were 139 to 140 °C, 29.1% and 7.06%.
For `CCc1c(Cc2ccc(F)cc2)c(=O)oc2cc(O)ccc12` [Compound 4g, 4-Ethyl-3-(4-fluorobenzyl)-7-hydroxy-2H-chromen-2-one] the same measures were 131 to 132 °C, 10.9% and 19.6%.
`CCCc1c(Cc2ccc(F)cc2)c(=O)oc2cc(O)ccc12` [Compound 4h, 3-(4-Fluorobenzyl)-7-hydroxy-4-propyl-2H-chromen-2-one]: the melting point fell in the range of 130 to 131 °C. At phosphorylated MEK1, the inhibition at 2 µM came to 20.9% and the inhibition at 20 µM came out at 20.4%.
For `O=c1cc(CCl)c2ccc(O)cc2o1` [Compound 4i, 4-(Chloromethyl)-7-hydroxy-2H-chromen-2-one], in that order: 166 to 167 °C, 33.3% and 22.4%.
With `O=c1cc(CO)c2ccc(O)cc2o1` [Compound 4j, 7-Hydroxy-4-(hydroxymethyl)-2H-chromen-2-one], the melting point lay within 148 to 149 °C. For the same molecule, at phosphorylated MEK1, the inhibition at 2 µM was determined as 36.3% and the inhibition at 20 µM came to 33.6%.
For the molecule `CN(C)C(=O)Oc1ccc2cc(Cc3ccccc3)c(=O)oc2c1` [Compound 12, 3-benzyl-7-N,N-dimethylcarbamoyloxyl-2H-chromen-2-one], on phosphorylated MEK1, the “binding affinity (in words)” value is recorded as “disappearance of affinity”, the inhibition at 2 µM is 31.6% and the inhibition at 20 µM amounted to 25.6%.
In turn, `CCc1c(Cc2ccccc2)c(=O)oc2cc(OC(=O)N(C)C)ccc12` [Compound 15, 3-Benzyl-4-ethyl-2-oxo-2H-chromen-7-yl dimethylcarbamate] gave a melting point of 85 to 86 °C. On phosphorylated MEK1, the IC50 amounted to 0.163 µM, the inhibition at 2 µM is 85% and the inhibition at 20 µM stood at 92.8%.
Molecule `CCCc1c(Cc2ccccc2)c(=O)oc2cc(OC(=O)N(C)C)ccc12` [Compound 16, 3-Benzyl-2-oxo-4-propyl-2H-chromen-7-yl dimethylcarbamate] yielded a melting point of 117 to 118 °C. Also, on phosphorylated MEK1, the IC50 amounted to 1.03 µM, the inhibition at 2 µM came out at 70.9% and the inhibition at 20 µM worked out at 95.4%.
As to `CCN(CC)C(=O)Oc1ccc2c(C)c(Cc3ccccc3)c(=O)oc2c1` [Compound 20, 3-Benzyl-4-methyl-2-oxo-2H-chromen-7-yl diethylcarbamate], the melting point was 109 °C. Besides, on phosphorylated MEK1, the inhibition at 2 µM worked out at 15.5% and the inhibition at 20 µM was found to be 20%.
For `CCN(CC)C(=O)Oc1cc2oc(=O)c(Cc3ccccc3)c(C)c2cc1Cl` [Compound 21, 3-Benzyl-6-chloro-4-methyl-2-oxo-2H-chromen-7-yl diethylcarbamate], in that order: 83 to 84 °C, 27% and 48.1%.
`CCc1c(Cc2ccccc2)c(=O)oc2cc(OC(=O)N(CC)CC)ccc12` [Compound 22, 3-Benzyl-4-ethyl-2-oxo-2H-chromen-7-yl diethylcarbamate]: the melting point lay within 64 to 65 °C. On phosphorylated MEK1, the inhibition at 2 µM stood at 6.63% and the inhibition at 20 µM turned out to be 48.1%.
In the case of `CCCc1c(Cc2ccccc2)c(=O)oc2cc(OC(=O)N(CC)CC)ccc12` [Compound 23, 3-Benzyl-2-oxo-4-propyl-2H-chromen-7-yl diethylcarbamate], the melting point fell in the range of 112 to 113 °C. At phosphorylated MEK1, the inhibition at 2 µM was 43.1% and the inhibition at 20 µM was found to be 46.1%.
For `CCN(CC)C(=O)Oc1ccc2c(C)c(Cc3ccc(F)cc3)c(=O)oc2c1` [Compound 24, 3-(4-Fluorobenzyl)-4-methyl-2-oxo-2H-chromen-7-yl diethylcarbamate] the same measures were 101 to 102 °C, 22.3% and 27.8%.
`CCc1c(Cc2ccc(F)cc2)c(=O)oc2cc(OC(=O)N(CC)CC)ccc12` [Compound 25, 4-Ethyl-3-(4-fluorobenzyl)-2-oxo-2H-chromen-7-yl diethylcarbamate]: the melting point lay within 74 to 75 °C. Also, on phosphorylated MEK1, the “binding affinity (in words)” value was “active”, the inhibition at 2 µM was found to be 25.9% and the inhibition at 20 µM was found to be 59.2%.
As for `Cc1c(Cc2ccccc2)c(=O)oc2cc(OS(=O)(=O)c3ccccc3)ccc12` [Compound 69, 3-Benzyl-4-methyl-2-oxo-2H-chromen-7-yl benzenesulfonate], on phosphorylated MEK1, the inhibition at 2 µM was -11.3% and the inhibition at 20 µM came to 2.32%.
For `Cc1c(Cc2ccccc2)c(=O)oc2cc(OS(=O)(=O)c3ccccc3)c(Cl)cc12` [Compound 70, 3-Benzyl-6-chloro-4-methyl-2-oxo-2H-chromen-7-yl benzenesulfonate], in that order: 29.9% and 24.5%.
As for `CCc1c(Cc2ccccc2)c(=O)oc2cc(OS(=O)(=O)c3ccccc3)ccc12` [Compound 71, 3-Benzyl-4-ethyl-2-oxo-2H-chromen-7-yl benzenesulfonate], on phosphorylated MEK1, the inhibition at 2 µM turned out to be 31.1% and the inhibition at 20 µM is -2.35%.
As for `CCCc1c(Cc2ccccc2)c(=O)oc2cc(OS(=O)(=O)c3ccccc3)ccc12` [Compound 72, 3-Benzyl-2-oxo-4-propyl-2H-chromen-7-yl benzenesulfonate], on phosphorylated MEK1, the inhibition at 2 µM amounted to 26% and the inhibition at 20 µM amounted to 14%.
`CCc1c(Cc2ccc(F)cc2)c(=O)oc2cc(OS(=O)(=O)c3ccccc3)ccc12` [Compound 73, 4-Ethyl-3-(4-fluorobenzyl)-2-oxo-2H-chromen-7-yl benzenesulfonate]: on phosphorylated MEK1, the “binding affinity (in words)” value was “inactive”, the inhibition at 2 µM was 16.6% and the inhibition at 20 µM stood at 7.4%.
With `Cc1c(Cc2ccc(F)cc2)c(=O)oc2cc(OS(=O)(=O)c3ccccc3)ccc12` [Compound 74, 3-(4-Fluorobenzyl)-4-methyl-2-oxo-2H-chromen-7-yl benzenesulfonate], at phosphorylated MEK1, the inhibition at 2 µM worked out at 21.4% and the inhibition at 20 µM was found to be 17%.
For `CCCc1c(Cc2ccc(F)cc2)c(=O)oc2cc(OS(=O)(=O)c3ccccc3)ccc12` [Compound 75, 3-(4-Fluorobenzyl)-2-oxo-4-propyl-2H-chromen-7-yl benzenesulfonate], in that order: 21.6% and 13.8%.
For `CCc1c(Cc2ccccc2)c(=O)oc2cc(OS(=O)(=O)c3ccc(C)cc3)ccc12` [Compound 78, 3-Benzyl-4-ethyl-2-oxo-2H-chromen-7-yl 4-methylbenzenesulfonate], in that order: 33.2% and 4.76%.
For `CCCc1c(Cc2ccccc2)c(=O)oc2cc(OS(=O)(=O)c3ccc(C)cc3)ccc12` [Compound 79, 3-Benzyl-2-oxo-4-propyl-2H-chromen-7-yl 4-methylbenzenesulfonate], in that order: 24.6% and 11.7%.
With `CCc1c(Cc2ccc(F)cc2)c(=O)oc2cc(OS(=O)(=O)c3ccc(C)cc3)ccc12` [Compound 80, 4-Ethyl-3-(4-fluorobenzyl)-2-oxo-2H-chromen-7-yl 4-methylbenzenesulfonate], on phosphorylated MEK1, the “binding affinity (in words)” value was “inactive”, the inhibition at 2 µM amounted to 33.1% and the inhibition at 20 µM was 16.5%.
Consider `CCCc1c(Cc2ccc(F)cc2)c(=O)oc2cc(OS(=O)(=O)c3ccc(C)cc3)ccc12` [Compound 82, 3-(4-Fluorobenzyl)-2-oxo-4-propyl-2H-chromen-7-yl 4-methylbenzenesulfonate], for which, on phosphorylated MEK1, the inhibition at 2 µM was found to be 37.5% and the inhibition at 20 µM stood at 45.9%.
For `O=C(c1ccccc1)c1cc2ccc(O)cc2oc1=O` [Compound 85, 3-Benzoyl-7-hydroxycoumarin] the same measures were 23% and 20.5%.
For `N#Cc1c(C(=O)c2ccccc2)c(=O)oc2cc(O)ccc12` [Compound 87, 3-Benzoyl-4-cyano-7-hydroxycoumarin] the same measures were 31.9% and 30%.

Broadly, the melting point is the temperature of the solid-liquid transition. For orientation: IC50 means the concentration needed to halve the response being measured. A low value points to greater potency.
